As usually defined, the IC50 is the concentration that gives 50% inhibition. High values mean weaker potency, low ones greater potency. Usually inhibition stands for the relative decrease from the control value, in per cent. Read a high inhibition as a strong effect.

This passage reports IC50 and inhibition results from patent US20240287079A1, “6-AMINOPYRAZOLOPYRIMIDINE COMPOUND AND PHARMACEUTICAL USE THEREOF” (Japan Tobacco Inc., priority 2021, published 2024).

The target of this experiment is NLRP3 inflammasome (Homo sapiens (Human), UniProt Q96P20). The experiment can be described thus: Evaluation of NLRP3 inflammasome inhibitory activity (inhibition of IL-1β production in LPS/Nigericin-stimulated THP1-Null cells). It counts as cell-based. Conditions: IL-1β production in THP1-Null cells; for IC50: PMA, LPS 1 μg/mL, Nigericin 7.5 μmol/L, AlphaLISA. In a few lines: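 THP1-Null cells primed with 1 μg/mL LPS, then treated with test compound; supernatant IL-1β quantified by AlphaLISA. Inhibition calculated with blank wells as 100% and control wells as 0%.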
NLRP3 inflammasome, sequence (Q96P20 whole entry): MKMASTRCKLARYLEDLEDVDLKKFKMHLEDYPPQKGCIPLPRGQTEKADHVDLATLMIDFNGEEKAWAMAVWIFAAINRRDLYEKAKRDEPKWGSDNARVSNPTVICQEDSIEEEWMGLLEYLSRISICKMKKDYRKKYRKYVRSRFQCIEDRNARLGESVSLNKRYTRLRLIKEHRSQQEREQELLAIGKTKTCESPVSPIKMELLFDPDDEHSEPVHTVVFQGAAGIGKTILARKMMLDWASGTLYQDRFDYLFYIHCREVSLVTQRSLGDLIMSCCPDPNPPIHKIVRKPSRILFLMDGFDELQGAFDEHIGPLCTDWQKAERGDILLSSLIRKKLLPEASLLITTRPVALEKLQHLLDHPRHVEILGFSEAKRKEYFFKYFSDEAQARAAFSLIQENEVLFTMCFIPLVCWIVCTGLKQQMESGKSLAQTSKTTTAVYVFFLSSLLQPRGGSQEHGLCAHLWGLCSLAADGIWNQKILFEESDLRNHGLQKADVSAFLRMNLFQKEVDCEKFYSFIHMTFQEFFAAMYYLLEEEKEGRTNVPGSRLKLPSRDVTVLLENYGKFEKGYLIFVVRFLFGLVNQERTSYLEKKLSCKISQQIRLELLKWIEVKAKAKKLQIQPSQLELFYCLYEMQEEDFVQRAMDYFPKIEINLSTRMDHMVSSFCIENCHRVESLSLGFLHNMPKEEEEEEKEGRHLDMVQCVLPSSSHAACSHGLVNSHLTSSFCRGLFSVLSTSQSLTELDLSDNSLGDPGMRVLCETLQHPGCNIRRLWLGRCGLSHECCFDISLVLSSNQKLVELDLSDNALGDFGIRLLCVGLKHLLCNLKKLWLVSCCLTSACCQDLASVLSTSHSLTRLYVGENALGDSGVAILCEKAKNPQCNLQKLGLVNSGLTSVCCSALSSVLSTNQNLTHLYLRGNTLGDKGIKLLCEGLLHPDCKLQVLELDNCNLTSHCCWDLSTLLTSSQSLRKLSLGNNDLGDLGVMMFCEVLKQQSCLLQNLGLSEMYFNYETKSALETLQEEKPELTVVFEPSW

`Cc1cc(C2CC2)cc(C)c1-n1cc2c(=O)n(C)c(N3CC4CC(C3)O4)nc2n1` [Example 312]: half-maximal inhibition (IC50) was put at 250 nM.

For the molecule `Cc1cc(Cl)cc(C)c1-n1cc2c(=O)[nH]c(N3CCOCC3)nc2n1` [Example 166], 16 nM corresponded to half-maximal inhibition (IC50).

In turn, `Cc1ccc(-n2cc3c(=O)[nH]c(N4CCCC4)nc3n2)cc1` [Example 40] had an IC50 of 770 nM.

With `O=c1[nH]c(N2C[C@@H]3C[C@H]2CO3)nc2nn(-c3ccc(Br)cc3C(F)(F)F)cc12` [Example 260], half-maximal inhibition (IC50) was put at 17 nM. This IC50 lies about 45-fold lower than the previous one.

Molecule `CS(=O)(=O)N1CCCN(c2nc3nn(-c4ccc(C(F)(F)F)cc4Cl)cc3c(=O)[nH]2)CC1` [Example 135] registered a half-maximal inhibitory concentration (IC50) of 43 nM. Against the preceding molecule, the IC50 is about 2.5-fold higher.

In the case of `Cc1cc(C)c(-n2cc3c(=O)[nH]c(N4CC(F)(F)C4)nc3n2)c(C)c1` [Example 92], half-maximal inhibition (IC50) required 11 nM.

In turn, `Cc1cc(Br)cc(Cl)c1-n1cc2c(=O)[nH]c(N3CCOCC3)nc2n1` [Example 146] gave an IC50 of 9.2 nM.

Turning to `COC1CCN(c2nc3nn(-c4c(C)cccc4C)cc3c(=O)[nH]2)C1` (racemic) [Example 54], the IC50 is 480 nM.

In turn, `[2H]C([2H])([2H])Nc1nc2nn(-c3c(C)cc(C4CC4)cc3C)cc2c(=O)[nH]1` [Example 231] registered an IC50 of 7.7 nM.

`Cc1cc(Br)cc(C)c1-n1cc2c(=O)[nH]c(N3C[C@@H]4C[C@H]3CO4)nc2n1` [Example 195] had an IC50 of 6.8 nM. This IC50 and that of the molecule before are within 1.5-fold of each other.

For `Cc1cc(C2CC2)cc(C)c1-n1cc2c(=O)[nH]c(N3CCCC3)nc2n1` [Example 286], inhibition was half-maximal at 4.2 nM (IC50).

Molecule `COCC(=O)N1CCN(c2nc3nn(-c4ccc(Br)cc4C)cc3c(=O)[nH]2)CC1` [Example 141] yielded an IC50 of 9.6 nM.

Molecule `Cc1cc(Br)cc(C)c1-n1cc2c(=O)[nH]c(N3CCOC(O)C3)nc2n1` (racemic) [Example 364] returned a half-inhibitory concentration (IC50) of 66 nM.

The molecule `Cc1cc(Br)cc(F)c1-n1cc2c(=O)[nH]c(N3CCOCC3)nc2n1` [Example 254] displayed an IC50 of 14 nM.

As to `O=c1[nH]c(N2CCOCCO2)nc2nn(-c3ccc(C4CC4)cc3C(F)(F)F)cc12` [Example 356], the IC50 was found to be 23 nM.

As for `O=c1[nH]c(NC2CCOCC2)nc2nn(-c3ccc(C(F)(F)F)cc3Cl)cc12` [Example 184], half-maximal inhibition (IC50) was put at 67 nM.

Take `Cc1cc(C)c(-n2cc3c(=O)[nH]c(N4CC5C(C4)C5(F)F)nc3n2)c(C)c1` (stereo not drawn) [Example 114]: the IC50 was 27 nM.

As for `Cc1cc(C(F)(F)F)cnc1-n1cc2c(=O)[nH]c(N3CC(F)(F)C3)nc2n1` [Example 123], the IC50 amounted to 140 nM.

`COCC1CN(c2nc3nn(-c4ccc(Br)cc4C)cc3c(=O)[nH]2)CCO1` (racemic) [Example 72] returned a half-inhibitory concentration (IC50) of 52 nM.

The molecule `COCc1cc(Br)ccc1-n1cc2c(=O)[nH]c(N3CCOCC3)nc2n1` [Example 268] came in with an IC50 of 34 nM.

In turn, `CO[C@H]1CCN(c2nc3nn(-c4c(C)cc(C5CC5)cc4C)cc3c(=O)[nH]2)C1` [Example 319] had an IC50 of 24 nM. The IC50 values of the last two molecules are within 1.5-fold of each other.

Regarding `O=c1[nH]c(N2CCOCC2)nc2nn(-c3ccc(Cl)cc3C(F)(F)F)cc12` [Example 176], 27 nM corresponded to half-maximal inhibition (IC50).

The molecule `Cc1cc(Br)cc(C)c1-n1cc2c(=O)[nH]c(N3CCCO3)nc2n1` [Example 308] registered an IC50 of 170 nM.

Consider `Cc1nn(C)c(C)c1-n1cc2c(=O)[nH]c(N3CCCC3)nc2n1` [Example 342], for which the inhibition at 2.4 µM (test compound 2.4 μM) came out at 45%.

Regarding `COC1CN(c2nc3nn(-c4ccc(C)cc4C)cc3c(=O)[nH]2)C1` [Example 59], the IC50 is 370 nM.

On to `Cc1cc(C(F)(F)F)cnc1-n1cc2c(=O)[nH]c(N3CCOCC3)nc2n1` [Example 122], for which half-maximal inhibition (IC50) required 180 nM.

In turn, `Cc1cc(C)c(-n2cc3c(=O)[nH]c(N4CCC(CO)CC4)nc3n2)c(C)c1` [Example 115] had an IC50 of 35 nM.

For the molecule `Cc1cc(C)c(-n2cc3c(=O)[nH]c(N4CCCC(O)C4)nc3n2)c(C)c1` (racemic) [Example 107], the half-inhibitory concentration (IC50) was 58 nM.

The molecule `Cc1cc(C2CC2)cc(C)c1-n1cc2c(=O)[nH]c(N3CCOCCO3)nc2n1` [Example 349, 2-(4-cyclopropyl-2,6-dimethylphenyl)-6-(1,5,2-dioxazepan-2-yl)-2,5-dihydro-4H-pyrazolo[3,4-d]pyrimidin-4-one] came in with a half-inhibitory concentration (IC50) of 19 nM.

Take `COCc1cc(Cl)ccc1-n1cc2c(=O)[nH]c(N3CCOCC3)nc2n1` [Example 143]: the IC50 was 59 nM.

The molecule `Cc1ccccc1-n1cc2c(=O)[nH]c(N(C)C)nc2n1` [Example 20] returned an IC50 of 6500 nM.

`CC(=O)N1CCN(c2nc3nn(-c4ccc(Br)cc4C)cc3c(=O)[nH]2)CC1` [Example 73] displayed an IC50 of 8.2 nM.

In turn, `O=c1[nH]c(N2CCOCC2)nc2nn(-c3ncc(C(F)(F)F)cc3Br)cc12` [Example 201] displayed an IC50 of 190 nM.

The molecule `O=c1[nH]c(N2CCCC2)nc2nn(-c3ncc(C(F)(F)F)cc3Cl)cc12` [Example 157] had an IC50 of 33 nM.

Regarding `Cc1cc(C(C)(F)F)cc(C)c1-n1cc2c(=O)[nH]c(N3CCOCCO3)nc2n1` [Example 351], it took 74 nM to reach half-maximal inhibition (IC50). This IC50 is about 2.2-fold higher than that of the molecule before.

For the molecule `Cc1cc(Br)cc(C)c1-n1cc2c(=O)[nH]c(N3CC4CCC(C3)O4)nc2n1` [Example 278], the concentration for half-maximal inhibition (IC50) is 7.9 nM.

Take `Cc1cc(Br)ccc1-n1cc2c(=O)[nH]c(N3CC4(COC4)C3)nc2n1` [Example 191]: the IC50 came out at 35 nM.

Molecule `O=c1[nH]c(N2CCCC2)nc2nn(-c3c(F)cccc3F)cc12` [Example 10] came in with a half-inhibitory concentration (IC50) of 2400 nM.

The molecule `O=c1[nH]c(N2CCCC2)nc2nn(-c3ccc(Cl)cc3F)cc12` [Example 97] came in with an IC50 of 27 nM. This IC50 lies about 89-fold lower than the previous one.

With `Cc1cc(Br)cc(C)c1-n1cc2c(=O)[nH]c(N3CCOCC3=O)nc2n1` [Example 353], 76 nM corresponded to half-maximal inhibition (IC50). Compared with the last molecule, the IC50 is about 2.8-fold higher.

`CC(C)Cc1ccccc1-n1cc2c(=O)[nH]c(N3CCOCC3)nc2n1` [Example 322] displayed an IC50 of 510 nM.

`Cc1cc(C2CC2)cc(C)c1-n1cc2c(=O)[nH]c(N3CCCOCC3)nc2n1` [Example 326] had a 50% inhibitory concentration (IC50) of 7.5 nM.

`Cc1ccccc1-n1cc2c(=O)[nH]c(NCC(C)C)nc2n1` [Example 35]: the IC50 stood at 1700 nM.

Turning to `O=c1[nH]c(N2CCCOCC2)nc2nn(-c3ccc(C(F)(F)F)cc3Cl)cc12` [Example 129], it took 35 nM to reach half-maximal inhibition (IC50).

`Cc1cc(Br)cc(C)c1-n1cc2c(=O)[nH]c(N3CCC[C@H]3C)nc2n1` [Example 284] came in with an IC50 of 12 nM.

For the molecule `Cc1cc(C)c(-n2cc3c(=O)[nH]c(N4CCOCC4)nc3n2)c(C)c1` [Example 96], the IC50 was found to be 14 nM. This IC50 and that of the molecule before are within 1.5-fold of each other.

`O=c1[nH]c(N2CCOCC2)nc2nn(-c3ccc(Br)cc3C(O)C3CC3)cc12` (racemic) [Example 150] displayed an IC50 of 16 nM.

Regarding `COC[C@@H]1CCCN1c1nc2nn(-c3ccccc3C)cc2c(=O)[nH]1` [Example 42], the IC50 was determined as 4200 nM.

`Cc1cc(C2CC2)cc(C)c1-n1cc2c(=O)[nH]c(N3CCOCC3)nc2n1` [Example 124] displayed an IC50 of 3 nM.

Consider `Cc1cc(C2CC2)cc(C)c1-n1cc2c(=O)[nH]c(N3CC4CC(C3)O4)nc2n1` [Example 232], for which the IC50 was determined as 6 nM.

As to `O=c1[nH]c(N2CCCC2)nc2nn(-c3ccc(Cl)cc3C(F)(F)F)cc12` [Example 218], the IC50 was found to be 5.7 nM.

Molecule `Cc1cc(Br)ccc1-n1cc2c(=O)n(C)c(N3CCOCC3)nc2n1` [Example 88, 2-(4-bromo-2-methylphenyl)-5-methyl-6-morpholino-2,5-dihydro-4H-pyrazolo[3,4-d]pyrimidin-4-one] gave an IC50 of 39 nM.

In turn, `Cc1cc(Br)cc(C)c1-n1cc2c(=O)[nH]c(N3CC4CC3C4)nc2n1` (racemic) [Example 217] displayed an IC50 of 7.1 nM. This IC50 is about 5.5-fold lower than that of the molecule before.

As for `Cc1cc(Br)ccc1-n1cc2c(=O)[nH]c(N3CCCC3)nc2n1` [Example 62], 9.1 nM corresponded to half-maximal inhibition (IC50).

Molecule `Cc1ccccc1-n1cc2c(=O)[nH]c(N3CC(F)(F)C3)nc2n1` [Example 34] had an IC50 of 470 nM.

As for `Cc1cc(Cl)cc(C(C)C)c1-n1cc2c(=O)[nH]c(N3CCOCC3)nc2n1` (racemic) [Example 188], the IC50 amounted to 89 nM.

`CC(=O)N1CC2CN(c3nc4nn(-c5ccc(C(F)(F)F)cc5Cl)cc4c(=O)[nH]3)CC2C1` (stereo not drawn) [Example 187] had an IC50 of 38 nM.

As to `Cc1cc(C2CCC2)cc(C)c1-n1cc2c(=O)[nH]c(N3CCOCC3)nc2n1` [Example 270], the 50% inhibitory concentration (IC50) is 83 nM.

In the case of `Cc1cc(Br)cc(C)c1-n1cc2c(=O)[nH]c(NCC3CC3)nc2n1` [Example 228], the IC50 came out at 7.7 nM.

Consider `CNc1nc2nn(-c3ccc(C)cc3C)cc2c(=O)[nH]1` [Example 65], for which inhibition was half-maximal at 80 nM (IC50). This IC50 is about 10-fold higher than that of the molecule before.

In turn, `Cc1cc(Br)ccc1-n1cc2c(=O)[nH]c(N3CC4CC3CO4)nc2n1` (racemic) [Example 159] yielded an IC50 of 11 nM.

In the case of `CNc1nc2nn(-c3ccc(C)cc3C)cc2c(=O)n1C` [Example 80], the IC50 turned out to be 570 nM. This IC50 lies about 52-fold higher than the previous one.

`COCCNc1nc2nn(-c3ccc(C)cc3C)cc2c(=O)[nH]1` [Example 60] displayed a concentration for half-maximal inhibition (IC50) of 240 nM. Against the preceding molecule, the IC50 is about 2.4-fold lower.

As for `CONc1nc2nn(-c3c(C)cc(C4CC4)cc3C)cc2c(=O)[nH]1` [Example 348], half-maximal inhibition (IC50) required 33 nM.

Take `Cc1cc(Br)cc(C)c1-n1cc2c(=O)[nH]c(N3CCC(C#N)C3)nc2n1` (racemic) [Example 323]: the half-maximal inhibitory concentration (IC50) was determined as 6.4 nM.

With `Cc1cc(C)cc(-n2cc3c(=O)[nH]c(N4CCCC4)nc3n2)c1` [Example 64], the IC50 worked out at 290 nM.

Molecule `Cc1cc(Br)cc(C)c1-n1cc2c(=O)[nH]c(N3C4CC3CN(S(C)(=O)=O)C4)nc2n1` [Example 221] showed an IC50 of 25 nM.

In turn, `Cc1cc(Cl)ccc1-n1cc2c(=O)[nH]c(N3CCCOCC3)nc2n1` [Example 165] displayed an IC50 of 29 nM.

The molecule `Cc1cc(N2CCC2)cc(C)c1-n1cc2c(=O)[nH]c(N3CCOCC3)nc2n1` [Example 327] returned an IC50 of 80 nM.

`Cc1cc(Br)cc(C)c1-n1cc2c(=O)[nH]c(N(C)C(C)C)nc2n1` [Example 291] yielded an IC50 of 16 nM.

For the molecule `Cc1cc(-n2cc3c(=O)[nH]c(N4CCOCC4)nc3n2)c(C)cc1Cl` [Example 265], the half-maximal inhibitory concentration (IC50) worked out at 350 nM.

In the case of `Cc1cc(C(F)F)cc(C)c1-n1cc2c(=O)[nH]c(N3C[C@H]4C[C@@H]3CO4)nc2n1` [Example 330], the IC50 was found to be 80 nM. Compared with the last molecule, the IC50 is about 4.4-fold lower.
